ChEMBL document CHEMBL1158996, “Antiviral phloroglucinols from New Zealand Kunzea species” (1992)

Tests used:
Human alphaherpesvirus 1 = assay: Antiviral activity against Herpes simplex virus type 1 assessed as inhibition of virus-induced cytopathic effect at 5 ug/disk; type: functional; conditions: read-out: IZ
Poliovirus 1 = assay: Antiviral activity against Poliovirus type 1 assessed as inhibition of virus-induced cytopathic effect at 5 ug/disk; type: functional; conditions: Enterovirus C; read-out: IZ

Structure (SMILES)	zone of inhibition at 5 µg/disc (Human alphaherpesvirus 1)	zone of inhibition at 5 µg/disc (Poliovirus 1)
COc1cc(O)c(C(=O)C(C)C)c(O)c1	17 mm	17 mm
COc1cc(O)cc(O)c1C(=O)C(C)C [ROBUSTAOL B]	17 mm	17 mm
